Source: US11478474B2, “2-(3′-(hydroxymethyl)-1-methyl-5-((5-(2-methyl-4-(oxetan-3-yl)piperazin-1-yl)pyridin-2-yl)amino)-6-oxo-1,6-dihydro-[3,4′-bipyridin]-2′-yl)-7,7-dimethyl-7,8-dihydro-2H-cyclopenta[4,5]pyrrolo[1,2-a]pyrazin-1(6H)-one as a BTK inhibitor” (HUTCHISON MEDIPHARMA LIMITED, priority 2020, dated 2022)
Like-named read-outs stand apart in the source and are kept apart here.

Legend:
[1] = tested on: B cell activation in mouse whole blood induced by anti-IgD antibodies; experiment: In vivo efficacy of the inhibitory effect on BTK target (anti-IgD antibody-induced B cell activation in mice whole blood after in vivo administration)
Method: Objects: B cells in mice whole blood were induced and activated by the anti-IgD antibody, and the inhibitory effect of the compound of the present invention on B cell activation in vivo was studied, so as to determine the inhibitory effect of the compound of the present invention on the BTK target in vivo.
Methods: C57BL/6 mice (female, 18-20 g, purchased from Shanghai Lingchang Biotechnology Co., Ltd.) were grouped according to Table 2.
The animals of each group were administered, then were placed in CO2 for anesthesia at designated time points, blood samples were taken from […] via retro-orbital bleeding, and heparin was used for anticoagulation; 90 μL of whole blood was taken from mice of each group, and added to a 96 well culture plate, and anti-mouse IgD antibody (BIO-RAD, Cat #MCA4693) was added to each well to a final concentration of 0.01 μg/μL (respectively for the each drug-treated group and anti-IgD antibody-inducted vehicle group); in addition, 90 μL of whole blood of mice in the vehicle group was taken and added to the 96-well culture plate, and PBS (phosphate buffer, GIBCO, Cat #C20012500BT) was added to each well to a final concentration of 0.01 μg/μL (namely, the vehicle control group); Each group was mixed well and incubated in a 37° C./5% CO2 incubator for 4 hours. In addition, the blood of mice in the drug-treated group was centrifuged to separate plasma for blood concentration analysis.
Calculation for B Cell Activation Ratio: B cell activation ratio=percentage of CD69+CD19+double positive B cells/percentage of CD19+single positive B cells
Calculation for Inhibition Ratio: Inhibition ratio=(percentage of B cell activation ratio in anti-IgD antibody-induced vehicle group-percentage of B cell activation ratio in drug-treated group)/(percentage of B cell activation ratio in anti-IgD antibody-induced vehicle group-percentage of B cell activation ratio in vehicle control group)×100%
All data are represented by mean±standard error. For the comparison between each drug-treated group and the anti-IgD antibody-induced vehicle group, p value was calculated by Graphpad Prism using one-way ANOVA analysis of variance and Dunnett's test, and for the comparison between each drug-treated group, p value was calculated by using unpaired t test.

[2] = Study on in vivo pharmacokinetics in mice; details: 10 mg/kg
Source text: Example 6 Study on In Vivo Pharmacokinetics in Mice
Solutol HS15 was purchased from BASF, Germany, ethanol (anhydrous) was purchased from Nanjing Chemical Reagent Co., Ltd., physiological saline was purchased from Huayu (Wuxi) Pharmaceutical Co., Ltd., dimethyl sulfoxide (DMSO) and sodium carboxymethyl cellulose 800-1200 (CMC-Na) were purchased from Sinopharm Chemical Reagent Co., Ltd.
Preparation of ethanol/Solutol mixed solution (1:1, v/v): taking an appropriate amount of Solutol HS15 in a centrifuge tube and placing in a 37° C. water bath until dissolved, placing on the bench top to room temperature, taking 1 mL of Solutol in a centrifuge tube containing 1 mL of ethanol and mixing well to obtain the mixed solution.
Taking an appropriate amount of stock solution and placing in a blank centrifuge tube, adding an appropriate amount of ethanol/Solutol mixed solution prepared in advance, vortexing, then adding an appropriate amount of physiological saline, and mixing well until a transparent liquid.
3. Administration to Animals and Sample Collection:
Male ICR mice were purchased from Shanghai Lingchang Biotechnology Co., Ltd. 18 mice were randomly divided into intravenous administration group and intragastric administration group. The mice were fasted overnight before administration. The mice were withheld food but allowed to access water freely within 4 hours after administration, and allowed to freely access food and water after 4 hours. After anesthesia with isoflurane, blood was collected from the retroorbital venous plexus and placing in an centrifuge tube containing anticoagulant, and the centrifuge tube was stored in an box containing wet ice until the plasma was centrifuged.
The plasma samples were pre-treated and then analyzed by liquid chromatography-tandem mass spectrometry (LC-MS/MS), the instrument model was API5500. The analytical chromatographic column was Waters XSELECT HSS T3 C18 column (50×2.1 mm, 2.5 μm). In the mobile phases, deionized water containing 0.1% formic acid and 0.1% acetonitrile was used as the aqueous phase and acetonitrile containing 0.1% formic acid was used as the organic phase. The concentrations of the compound in the samples were determined as follows. Firstly, a standard curve was established, and the peak area ratios of the compound 19 to the internal standard in the standard curve were used as indexes. The theoretical concentrations of compound 19 and the peak area ratios of compound 19 to the internal standard were fitted with a quadratic regression equation to obtain the regression equation. The sample concentrations were calculated by measuring the peak area ratio of the compound of the test sample to the internal standard according to the standard curve.

[3] = male ICR mice, oral (intragastric) administration, plasma
[4] = male ICR mice, oral (intragastric) administration, plasma, 24 h
[5] = mouse, male ICR mice, oral (intragastric) administration, plasma
[6] = mouse, male ICR mice, oral (intragastric) administration, plasma, read-out: Cmax

Cmax [2, 3] | C8 h (plasma concentration at 8 h) ([2]; male ICR mice, oral (intragastric) administration, plasma, 8 h) | C24 h (plasma concentration at 24 h) [2, 4] | plasma exposure (AUC0-∞) relative to the reference GDC-0853 ([2]; mice, oral administration) | plasma concentration at 8 h relative to GDC-0853 ([2]; mice, oral administration, 8 h) | AUC(0-inf) [2, 5] | half-life [2, 5] | Cmax [2, 6] | concentration at 8 h ([2]; mouse, male ICR mice, oral (intragastric) administration, plasma, 8 h, read-out: C8 h (plasma concentration at 8 h)) | concentration at 24 h ([2]; mouse, male ICR mice, oral (intragastric) administration, plasma, 24 h, read-out: C24 h (plasma concentration at 24 h)) | Structure (SMILES) | B cell activation ratio (the proportion of activated B cells to total B cells) ([1]; 5 mg/kg, 16 h after administration, mice whole blood, anti-IgD antibody, mean±standard error) | Inhibition ratio (%) on B cell activation ([1]; 5 mg/kg, 16 hours after administration, mice whole blood, anti-IgD antibody, listed as Compound 19) | Inhibition ratio (%) on B cell activation ([1]; 5 mg/kg, 16 hours after administration, mice whole blood, anti-IgD antibody, listed as compound 19) | Inhibition ratio (%) ([1]; 20 mg/kg single oral gavage, 16 h) | B cell activation ratio (the proportion of activated B cells to total B cells) ([1]; 20 mg/kg single oral gavage, 16 h, mean ± standard error) | inhibition ratio on B cell activation ([1]; 20 mg/kg, 16 hours after administration, mice whole blood, anti-IgD antibody)
3.807 µg/mL | 0.555 µg/mL | 0.0085 µg/mL | about 1.7 times | about 3.9 folds | 17.8 µg·h/mL | 2.7 h | 3.81 µg/mL | – | – | C[C@H]1CN(C2COC2)CCN1c1ccc(Nc2cc(-c3ccnc(-n4ccn5c6c(cc5c4=O)CC(C)(C)C6)c3CO)cn(C)c2=O)nc1 [Compound 19] | 8.3 ± 1.2 | 80% | 80% | – | – | –
4.063 µg/mL | – | <0.0024 µg/mL | – | – | 10.3 µg·h/mL | 1.5 h | 4.06 µg/mL | 0.143 µg/mL | < 0.0024 µg/mL | C[C@H]1CN(C2COC2)CCN1c1ccc(Nc2cc(-c3ccnc(N4CCn5c(cc6c5CC(C)(C)C6)C4=O)c3CO)cn(C)c2=O)nc1 [GDC-0853, fenebrutinib, reference compound] | – | – | – | 9% | 29.3 ± 6.7 | 9%
